For orientation: EC50 means the midpoint of the concentration-response curve.

Where no end group is shown, it is not given here.

This is an account of results in PMC6053504, “Inhibitory Role of the Mud Crab Short Neuropeptide F in Vitellogenesis and Oocyte Maturation via Autocrine/Paracrine Signaling” (Frontiers in Endocrinology, 2018).

In one experiment the target is T1, Sp-sNPFR (Scylla paramamosain, UniProt A0A345ZFF5).
T1 sequence (A0A345ZFF5 1-458): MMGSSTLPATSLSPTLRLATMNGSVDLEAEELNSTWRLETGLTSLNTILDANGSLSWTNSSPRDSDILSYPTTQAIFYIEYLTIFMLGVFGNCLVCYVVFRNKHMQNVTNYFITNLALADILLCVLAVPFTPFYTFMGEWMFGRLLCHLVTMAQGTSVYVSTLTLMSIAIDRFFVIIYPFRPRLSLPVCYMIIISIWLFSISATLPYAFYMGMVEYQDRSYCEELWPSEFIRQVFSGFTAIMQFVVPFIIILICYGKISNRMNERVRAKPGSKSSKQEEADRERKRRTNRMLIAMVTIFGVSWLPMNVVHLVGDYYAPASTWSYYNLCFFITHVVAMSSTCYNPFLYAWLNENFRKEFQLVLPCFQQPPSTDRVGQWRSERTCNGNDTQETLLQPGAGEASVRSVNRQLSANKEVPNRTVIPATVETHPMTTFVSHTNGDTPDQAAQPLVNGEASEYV
As to the kind of experiment: Ligand-receptor activation of signaling, dual-luciferase (pCRE-luc) reporter in HEK293T. The class given is cell-based. To be noted: HEK293T transiently co-transfected with Sp-sNPFR/pEGFP-N1, pCRE-luc, pRL-TK; incubation 6 h; dual-luciferase read-out (Figure 3B legend: concentration of cAMP determined); nonlinear curve fitting; mean ± SD, three biological replicates. The protocol: Human embryonic kidney cell lines (HEK293T) were maintained in high glucose DMEM (Hyclone) supplemented with 10% fetal bovine serum (Gibco), 100 U/mL penicillin and 100 μg/mL streptomycin (Hyclone) at 37°C in a humidified incubator (Thermo) containing 5% CO2. Cells were seeded overnight in 6-well plates and transiently co-transfected with 1 μg of the Sp-sNPFR/pEGFP-N1 plasmid, 0.8 μg of the reporter gene pCRE-luc, and 0.4 μg of internal control gene pRL-TK using 5 μL Lipofectamine 2000 (Invitrogen) reagent following the manufacturer's protocols. Empty pEGFP-N1 plasmid was used for mock transfection.
HEK293T transiently co-transfected with Sp-sNPFR/pEGFP-N1 and dual-luciferase reporter system vectors were grown to 90% confluency in a 24-well plate. Cells were first treated with synthetic Sp-sNPF peptide mixture and the mixture containing 9 synthetic FLPs (GL Biochem, Table 2) at 1 μM each. Further, various concentrations of individual peptides were used to record dose-dependent curves. After incubation for 6 h, ligand-induced changes in luciferase activity were measured by GloMax® 20/20 Luminometer (Promega) with Dual-Luciferase® Reporter Assay System Kit (Promega).
All values are expressed as mean ± SD. Multiple sequence alignment of sNPFR sequences was performed with ClustalX and embellished by LaTEX TexShade ([57]). Data of ligand-receptor assays were analyzed using nonlinear curve fitting (GraphPad Prism 6.0) to obtain activation curves and EC50 values. The mRNA levels of Sp-Vg and Sp-VgR gene were normalized against the internal control β-actin, and the relative expression was calculated using the 2^−ΔΔCt method. Statistical significance was determined using one-way ANOVA followed by Duncan's multiple range tests. All statistical analyses were performed using IBM SPSS Statistics 20.0. Pictures were drawn by GraphPad Prism 6.0 and modified with Adobe Photoshop CS5.

The next experiment deals with denuded oocytes. Also on record: method as in 2 sources, one per row (each row's own in cited_ref): ref 76 = [76]; PMID 20382141; doi:10.1016/j.ydbio.2010.03.027; 76. Pang Y Thomas P . Role of G protein-coupled estrogen receptor 1, GPER, in inhibition of oocyte maturation by endogenous estrogens in zebrafish . Dev Biol. ( 2010 ) 342 : 194 – 206 . 10.1016/j.ydbi ||| ref 77 = [77]; PMID 21636738; doi:10.1095/biolreprod.111.091884; 77. Zhou R Tsang AH Lau SW Ge W . Pituitary adenylate cyclase-activating polypeptide (PACAP) and its receptors in the zebrafish ovary: evidence for potentially dual roles of pacap in controlling final. To be noted: zebrafish, via GPER; cited from earlier work.

As to SMPTLRLRF-NH2 [Sp-sNPF2], on Sp-sNPFR, the concentration for a half-maximal effect (EC50) was found to be 3.8 µM.

For `C[C@]12CC[C@@H]3c4ccc(O)cc4CC[C@H]3[C@@H]1CC[C@@H]2O` [E2, Estradiol], the “inhibition of spontaneous oocyte maturation” value in the experiment with denuded oocytes is given as “partly inhibited the spontaneous maturation of the denuded oocytes”.

Turning to KDARTPALRLRF-NH2 [Sp-sNPF3], the EC50 on Sp-sNPFR worked out at 8.5 µM.

Take APPSMRLRF-NH2 [Sp-sNPF1]: the concentration for a half-maximal effect (EC50) on Sp-sNPFR is 1.2 µM.
